Experimental data as given in patent US20070197509A1, “Compositions and methods for modulating gated ion channels” (PainCeptor Pharma Corporation, priority 2005, published 2007).
“Also recorded” adds a separate entry of the source. Like-named read-outs stand apart in the source and are kept apart here.

Target: T1, hASIC1a (Homo sapiens, UniProt P78348)
T1 sequence (P78348 1-528): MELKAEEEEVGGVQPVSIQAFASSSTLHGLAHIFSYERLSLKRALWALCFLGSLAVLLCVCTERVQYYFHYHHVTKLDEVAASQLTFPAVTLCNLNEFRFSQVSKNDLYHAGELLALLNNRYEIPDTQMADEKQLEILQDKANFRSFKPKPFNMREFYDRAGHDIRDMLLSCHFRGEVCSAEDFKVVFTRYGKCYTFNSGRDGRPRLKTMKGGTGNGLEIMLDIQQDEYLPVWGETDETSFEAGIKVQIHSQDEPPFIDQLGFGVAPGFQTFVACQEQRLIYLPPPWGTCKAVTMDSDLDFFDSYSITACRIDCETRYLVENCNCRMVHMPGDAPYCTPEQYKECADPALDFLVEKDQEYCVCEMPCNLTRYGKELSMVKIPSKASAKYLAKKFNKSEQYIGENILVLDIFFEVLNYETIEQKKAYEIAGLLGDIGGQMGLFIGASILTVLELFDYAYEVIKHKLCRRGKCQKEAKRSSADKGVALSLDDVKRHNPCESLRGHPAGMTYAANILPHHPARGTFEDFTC
Assay: Two-electrode voltage clamp in Xenopus laevis oocytes expressing hASIC1a (OpusExpress)
Format: cell-based
Parameters: expressed in transfected cells; host or cells: Xenopus laevis oocytes, nuclear microinjection of cDNA (e.g. in pCDNA3)
Experimental: Two-electrode voltage clamp electrophysiological assays in Xenopus laevis oocytes expressing gated ion channels are performed as follows:
Oocytes are surgically removed from adult Xenopus laevis and treated for 2 h at room temperature with 1 mg/ml type I collagenase (Sigma) in Barth's solution under mild agitation. Selected oocytes at stage IV-V are defolliculated manually before nuclear microinjection of 2.5-5 ng of a suitable expression vector, such as pCDNA3, comprising the nucleotide sequence encoding a gated ion channel subunit protein. In such an experiment, the oocytes express homomultimeric proton-gated ion channels on their surface. In an alternate experiment, one, two, three or more vectors comprising the coding sequences for distinct gated ion channel subunits are co-injected in the oocyte nuclei. In the latter case, oocytes express heteromultimeric proton-gated ion channels. […] Once impaled with the microelectrodes, oocytes are continuously superfused at 10-12 ml/min with a modified Ringer's solution containing 97 mM NaCl, 2 mM KCl, 1.8 mM CaCl2, and 10 mM HEPES brought to pH 7.4 with NaOH (Control Ringer). Test Ringer solution is prepared by replacing HEPES with MES and adjusting the pH to the desired acidic value. Compounds of the present invention are prepared in both the Control and Test Ringer solutions and applied to oocytes at room temperature through a computer-controlled switching valve system. […] Similarly, recordings can also be acquired in an automated multichannel oocytes system as the OpusExpress™ (Molecular Devices, Sunnyvale, Calif., USA).
Recordings were acquired from oocytes expressing homomeric hASIC1a using a two-electrode voltage-clamp configuration procedure as described herein.

[1] = OpusExpress (OX), Tables A-F, h1a printed in some cells only, read-out: Biological Data (IC50 uM) h1a (OX)
[2] = Table H, read-out: IC50 (μM) Opus Express (h1a)
[3] = OpusExpress (OX), Tables A-F, h1a printed in some cells only

Row | Structure (SMILES) | IC50 [1] [µM] | Biological Data (IC50 uM) h1a (OX) [3] | also measured
1 | COc1ccc2nc(C)cc(OC3CCN(Cc4ccccc4)CC3)c2c1 [Compound 8, 4-(1-benzyl-piperidin-4-yloxy)-6-methoxy-2-methyl-quinoline] | > 30 |  | 
2 | FC(F)(F)c1cc(OC2CCN(Cc3ccccc3)CC2)c2ccccc2n1 [Compound 13, 4-(1-benzyl-piperidin-4-yloxy)-2-trifluoromethyl-quinoline] | 20 to 35 |  | IC50 [2]: 27.6 µM
3 | c1ccc(CN2CCC(Oc3cc(-c4ccccc4)nc4ccccc34)CC2)cc1 [Compound 3, 4-(1-benzyl-piperidin-4-yloxy)-2-phenyl-quinoline] |  | Not Active (OX) | 
4 | Cc1cc(OC2CCN(Cc3ccccc3)CC2)c2ccc(Cl)cc2n1 [Compound 9, 4-(1-benzyl-piperidin-4-yloxy)-7-chloro-2-methyl-quinoline] |  | Not Active (OX) | 
5 | Cc1cc(OCCCN(C)Cc2ccccc2)c2ccccc2n1 [Compound 1, benzyl-methyl-[3-(2-methyl-quinolin-4-yloxy)-propyl]-amine] | > 30 |  | 
6 | Cc1cc(OC2CCN(C(=O)OC(C)(C)C)CC2)c2ccccc2n1 [Compound 12, 4-(2-methyl-quinolin-4-yloxy)-piperidine-1-carboxylic acid tert butyl ester] |  | Not Active (OX) | 
7 | CCc1nc(N(C)C2CCN(Cc3ccccc3)CC2)c2ccccc2n1 [Compound 32, (1-benzyl-piperidin-4-yl)-(2-ethyl-quinazolin-4-yl)-methyl-amine] | 15 to 25 |  | effect on hASIC1a current evoked by pH 6.5 in oocytes (FIGS. 4A-4D) (OpusExpress, two-electrode voltage clamp, dose-response): effective modulators; also recorded: dose-dependent reduction; IC50 [2]: 20.7 µM
8 | Cc1cc(OC2CCN(CC(C)C)CC2)c2ccccc2n1 [Compound 29, 4-(1-isobutyl-piperidin-4-yloxy)-2-methyl-quinoline] | > 30 |  | 
9 | Cc1cc(OC2CCN(Cc3ccc(Cl)cc3)CC2)c2ccccc2n1 [Compound 5, 4[1-(4-chloro-benzyl)-piperidin-4-yloxy]-2-methyl-quinoline] |  |  | approx. % at 30 uM (OX) (30 uM, OpusExpress, kind of effect not given): approx. 15% at 30 uM (OX)

Further lines, with some results ahead:

Row | IC50 [1] [µM] | Biological Data (IC50 uM) h1a (OX) [3] | Structure (SMILES) | also measured
10 | > 30 |  | C=CCOC(=O)N1CCC(Oc2cc(C)nc3ccccc23)CC1 [Compound 113, 4-(2-methyl-quinolin-4-yloxy)-piperidine-1-carboxylic acid allyl ester] | IC50 [2]: 17.1 µM
11 |  | Not Active (OX) | Cc1cc(N2CCN(c3ccc([N+](=O)[O-])cc3)CC2)c2ccccc2n1 [Compound 61, 2-methyl-4-[4-(4-nitro-phenyl)-piperazin-1-yl]-quinoline] | 
12 |  | Not Active (OX) | O=C(O)c1ccc(Nc2ncnc3ccccc23)cc1 [Compound 102, 4-(quinazolin-4-ylamino)-benzoic acid] | 
13 |  | Not Active (OX) | Cc1ccc(-c2nc(NCCCC(=O)O)c3ccccc3n2)cc1 [Compound 105, 4-(2-p-tolyl-quinazolin-4-ylamino)-butyric acid] | 
14 |  | Not Active (OX) | CCc1nc(NCCOC)c2ccccc2n1 [Compound 111, (2-ethyl-quinazolin-4-yl)-(2-methoxy-ethyl)-amine] | 
15 |  | Not Active (OX) | Cc1ccc(-c2nc(Nc3ccccc3)c3ccccc3n2)cc1 [Compound 104, Phenyl-(2-p-tolyl-quinazolin-4-yl)-amine] | 
16 |  | Not Active (OX) | Cc1ccc(-c2nc(N(C)c3ccc(C(=O)O)cc3)c3ccccc3n2)cc1 [Compound 106, 4-[methyl-(2-p-tolyl-quinazolin-4-yl)-amino]-benzoic acid] | 
17 |  | Not Active (OX) | COc1ccc(-c2cc(C(=O)N3CCN(Cc4ccc5c(c4)OCO5)CC3)c3cc(Cl)ccc3n2)c(O)c1 [Compound 45, (4-benzo[1,3]dioxol-5-ylmethyl-piperazin-1-yl)-[6-chloro-2-(2-hydroxy-4-methoxy-phenyl)-quinolin-4-yl]-methanone] | 
18 |  | Not Active (OX) | Cc1ccc(-c2nc(N3CCCCC3)c3ccc(Cl)cc3n2)cc1 [Compound 110, 7-chloro-4-piperidin-1-yl-2-p-tolyl-quinazoline] | 
